This is an account of results in patent publication US20210038753A1, “BIOLOGICAL STERILIZATION INDICATOR WITH STERILANT RESISTANCE MODULATOR” (3M INNOVATIVE PROPERTIES COMPANY, priority 2014, published 2021).

Holding throughout (type): cell-based
Experiment [1] concerns Geobacillus stearothermophilus spores. In words: Survival of spores (growth, pH indicator change) in modulator-treated self-contained biological indicators after H2O2 sterilant exposure (Example 1). To be noted: for percentage of self-contained biological indicators that showed observable growth (pH indicator change): 2 minutes. How it is done: Tub-shaped spore carriers (polypropylene), similar to those described in International Publication No. WO2014/189716 with the exception that they were not coated with colloidal nanoparticles, were used. Liquid-cultured Geobacillus stearothermophilus spores (>10^6), were suspended in sterile water. Approximately 10 μL of the spore suspension was deposited onto the spore carriers and dried at room temperature. Aliquots (0 μL, 5 μL, or 10 μL, respectively) of a 0.5M sterile solution of L-homocysteine were deposited into the dried, spore-coated tub-shaped spore carrier. The homocysteine-coated tubs were dried at room temperature. Thus, the final dried coating on the carriers included at least 10^6 spores with 0, 2.5 or 5 micromoles of L-homocysteine, respectively.
FIG. 1. The outer container 12 was obtained from 3M ATTEST 1292 Rapid Biological Indicators (available from 3M Company; St. Paul, Minn.). The cap was obtained from 3M ATTEST 1261 Biological Indicators (3M Company). The nutrient medium was from 3M ATTEST 1292 ampoules with added methionine (5 g/L). Five individual self-contained biological indicators were exposed to different concentrations (listed in Table 3) of hydrogen peroxide for 2 minutes in a STERRAD NX sterilizer. After exposing them to the sterilization process, all of the self-contained biological indicators were activated by crushing the ampoule inside the outer container.

The test system is the same in experiment [2]. In words: Resistance of self-contained biological indicators to hydrogen peroxide sterilization, glucosidase enzyme activity fluorescence readout (ENZ+). How it is done:
(§1) PET film (.09 mm thick) was coated with colloidal silica as described in International Publication No. WO2014/189716, which is incorporated herein by reference in its entirety. […] Separate aqueous spore coating solutions were prepared as described in Example 1 with the amino acids shown in table 4 present in the coating solutions. Two microliter aliquots (containing at least 10^6 spores) of the respective spore coating solutions were deposited onto the silica-coated PET film, forming a series of spaced-apart spots on the film. The spore coated films were dried in a 60° C. incubator for 12 minutes. Circular discs (hereinafter, “coated carriers”) of the PET film, each disc including one of the dried spots, were punched out and were used to assemble self-contained biological indicators (BI) similar to that shown in FIG. 1 of International Publication No. WO2014/189716. The coated carriers described above were placed into the “spore carrier 135” shown in FIG. 1 of International Publication No. WO2014/189716. Each self-contained BI comprised a polycarbonate outer container, a breaker, a cap, and a cap filter. Disposed inside the outer container were a coated carrier along with an ampoule media containing the nutrient medium from 3M ATTEST 1292 Rapid Readout Biological Indicators plus 5g/L methionine (as described in Example 1).
(§2) The self-contained biological indicators with different concentrations of additives (Table 4) were exposed to hydrogen peroxide sterilization in STERRAD NX sterilizer. The sterilization processes were run by manually injecting 1.0 ml of 59% hydrogen peroxide per load, unless specified otherwise. The exposure time was varied to determine the resistance profile of self-contained BIs with different additive formulations. The BIs were activated by pressing down the cap to break the media ampoule. The activated BIs were placed in a bench-top fluorimeter (3M Company, St. Paul, Minn.) to detect fluorescence.
(§3) A self-contained BI that is not completely inactivated (i.e., not all of the spores are killed by the sterilization process) will resume cellular functions upon activation of the BI. The production of glucosidase enzyme by surviving spores is an indication that at least one of the spores have not been inactivated (killed) by the sterilization process. The glucosidase enzyme cleaves the 4-methylumbelliferyl-glucoside (MUG) releasing the fluorescent methyl umbelliferone, which is detected using a bench-top fluorimeter. Growth and proliferation of spores in the self-contained biological indicator can also be detected by a pH change, which may be detected by a color change of the pH indicator in the growth medium.
(§4) Self-contained biological indicators were prepared (with various additives listed in table 4) as described above in this Example. For each additive tested, a lower range and a higher range was used as a preliminary screen to identify additives modulated the resistance of the spores to the sterilant. Five self-contained BIs representing each condition were exposed to hydrogen peroxide sterilization in STERRAD NX sterilizer. The sterilization processes used a constant injection volume (1.0 ml of 59% hydrogen peroxide) and various times (e.g., 20 seconds to 7 minutes) of exposure to the hydrogen peroxide. The self-contained BIs were activated after exposure to the sterilization process and were monitored for fluorescence using a bench-top fluorimeter) and pH based color change (visually). […]
(§5) Self-contained biological indicators (with various additives listed in table 5) were prepared as described in Example 2. The self-contained biological indicators were exposed to hydrogen peroxide in a STERRAD NX sterilizer as described in Example 2. The self-contained BIs were activated after exposure to the sterilization process and were monitored for fluorescence using a bench-top fluorimeter and pH based color change (visually).

Experiment [3] has the same test system. In words: Resistance of self-contained biological indicators to hydrogen peroxide sterilization, growth readout by pH colour change (GRO+). How it is done: as §1, §2, §3, §4, §5
[4] abbreviates: Table 4, modulator 0.01 weight percent in spore coating solution, H2O2 exposure 30 sec.
Where [5] appears, read: Table 4, modulator 0.01 weight percent in spore coating solution, H2O2 exposure 60 sec.
Setting [6] is: Table 4, modulator 0.01 weight percent in spore coating solution, H2O2 exposure 90 sec.
Setting [7] is: Table 4, modulator 0.01 weight percent in spore coating solution, H2O2 exposure 3 min.
Where [8] appears, read: Table 4, modulator 0.01 weight percent in spore coating solution, H2O2 exposure 7 min.
Setting [9] is: Table 4, modulator 0.1 weight percent in spore coating solution, H2O2 exposure 30 sec.
Where [10] appears, read: Table 4, modulator 0.1 weight percent in spore coating solution, H2O2 exposure 60 sec.
Setting [11] is: Table 4, modulator 0.1 weight percent in spore coating solution, H2O2 exposure 90 sec.
Where [12] appears, read: Table 4, modulator 0.1 weight percent in spore coating solution, H2O2 exposure 3 min.
Where [13] appears, read: Table 4, modulator 0.1 weight percent in spore coating solution, H2O2 exposure 7 min.

On to `N[C@@H](CCS)C(=O)O` [L-homocysteine], for which the “resistance of spores to H2O2 compared to 0 micromoles of L-homocysteine” value in experiment [1] (2.5 micromoles of L-homocysteine, seen with 0.6 ml and 0.8 ml of 59% H2O2) is given as “decrease in resistance of spores”. The “percentage of self-contained biological indicators that showed observable growth (pH indicator change)” value in experiment [1] (2.5 micromoles of homocysteine, 0.1 ml of 59% H2O2 (94 mg × Sec/L)) amounted to 100%; in experiment [1] (2.5 micromoles of homocysteine, 0.2 ml of 59% H2O2 (222 mg × Sec/L)) it was 80%; in experiment [1] (2.5 micromoles of homocysteine, 0.4 ml of 59% H2O2 (458 mg × Sec/L)) it was 60%; in experiment [1] (2.5 micromoles of homocysteine, 0.6 ml of 59% H2O2 (689 mg × Sec/L)), 60%; in experiment [1] (2.5 micromoles of homocysteine, 0.8 ml of 59% H2O2 (842 mg × Sec/L)), 20%; in experiment [1] (5.0 micromoles of homocysteine, 0.1 ml of 59% H2O2 (94 mg × Sec/L)), 100%. Moreover, the “percentage of self-contained biological indicators that showed observable growth (pH indicator change)” value in experiment [1] (5.0 micromoles of homocysteine, 0.2 ml of 59% H2O2 (222 mg × Sec/L)) is given as 40%; in experiment [1] (5.0 micromoles of homocysteine, 0.4 ml of 59% H2O2 (458 mg × Sec/L)) it was 0%; in experiment [1] (5.0 micromoles of homocysteine, 0.6 ml of 59% H2O2 (689 mg × Sec/L)), 0%; in experiment [1] (5.0 micromoles of homocysteine, 0.8 ml of 59% H2O2 (842 mg × Sec/L)), 0%. Moreover, the “resistance of spores to H2O2” value in experiment [1] (5.0 micromoles of L-homocysteine, all kill with 0.4 ml of 59% H2O2) is recorded as “reduced the resistance of spores significantly”.

`O=C(O)[C@@H]1CCCN1` [L-proline, reference compound]: the “percentage of self-contained biological indicators positive for glucosidase enzyme activity (ENZ+)” value in experiment [2] (setting [4]) is 100%; in experiment [2] (setting [5]), 100%; in experiment [2] (setting [6]), 100%; in experiment [2] (setting [7]), 0%; in experiment [2] (setting [8]), 0%; in experiment [2] (setting [9]), 100%. The “percentage of self-contained biological indicators positive for glucosidase enzyme activity (ENZ+)” value in experiment [2] (setting [10]) is on record as 100%; in experiment [2] (setting [11]) it was 100%; in experiment [2] (setting [12]) it was 0%; in experiment [2] (setting [13]) it was 0%. For the same compound, the “sensitivity of the biological indicator to the sterilization process relative to the control with no additives” value in experiment [3] (Example 2 / Comparative Example 1 (Table 4), fluorescence and growth readouts) is on record as “did not result in an increased sensitivity”. The “percentage of self-contained biological indicators positive for growth (GRO+)” value in experiment [3] (setting [4]) amounted to 100%; in experiment [3] (setting [5]), 100%; in experiment [3] (setting [6]), 100%; in experiment [3] (setting [7]) it was 0%; in experiment [3] (setting [8]) it was 0%; in experiment [3] (setting [9]), 100%. In addition, the “percentage of self-contained biological indicators positive for growth (GRO+)” value in experiment [3] (setting [10]) was 100%; in experiment [3] (setting [11]), 100%; in experiment [3] (setting [12]), 0%; in experiment [3] (setting [13]) it was 0%.
